Experimental data from PMC10683025, “Discovery of a Hydroxylamine-Based Brain-Penetrant EGFR Inhibitor for Metastatic Non-Small-Cell Lung Cancer” (Journal of Medicinal Chemistry, 2023).
Values after ≈ are worked out from the molar mass of the structure shown. Read-outs that look alike come from different tables or passages of the source. One block for each molecule: values may come before it.

Key:
[1] = target: T1, EGFRwt (Homo sapiens, UniProt P00533); test: KINOMEScan KdELECT Kd determination; type: binding; conditions: wt; read-out: EGFR Kd
T1 construct: purchased Eurofins DiscoverX (contract assay)
T1 sequence (P00533 25-1210): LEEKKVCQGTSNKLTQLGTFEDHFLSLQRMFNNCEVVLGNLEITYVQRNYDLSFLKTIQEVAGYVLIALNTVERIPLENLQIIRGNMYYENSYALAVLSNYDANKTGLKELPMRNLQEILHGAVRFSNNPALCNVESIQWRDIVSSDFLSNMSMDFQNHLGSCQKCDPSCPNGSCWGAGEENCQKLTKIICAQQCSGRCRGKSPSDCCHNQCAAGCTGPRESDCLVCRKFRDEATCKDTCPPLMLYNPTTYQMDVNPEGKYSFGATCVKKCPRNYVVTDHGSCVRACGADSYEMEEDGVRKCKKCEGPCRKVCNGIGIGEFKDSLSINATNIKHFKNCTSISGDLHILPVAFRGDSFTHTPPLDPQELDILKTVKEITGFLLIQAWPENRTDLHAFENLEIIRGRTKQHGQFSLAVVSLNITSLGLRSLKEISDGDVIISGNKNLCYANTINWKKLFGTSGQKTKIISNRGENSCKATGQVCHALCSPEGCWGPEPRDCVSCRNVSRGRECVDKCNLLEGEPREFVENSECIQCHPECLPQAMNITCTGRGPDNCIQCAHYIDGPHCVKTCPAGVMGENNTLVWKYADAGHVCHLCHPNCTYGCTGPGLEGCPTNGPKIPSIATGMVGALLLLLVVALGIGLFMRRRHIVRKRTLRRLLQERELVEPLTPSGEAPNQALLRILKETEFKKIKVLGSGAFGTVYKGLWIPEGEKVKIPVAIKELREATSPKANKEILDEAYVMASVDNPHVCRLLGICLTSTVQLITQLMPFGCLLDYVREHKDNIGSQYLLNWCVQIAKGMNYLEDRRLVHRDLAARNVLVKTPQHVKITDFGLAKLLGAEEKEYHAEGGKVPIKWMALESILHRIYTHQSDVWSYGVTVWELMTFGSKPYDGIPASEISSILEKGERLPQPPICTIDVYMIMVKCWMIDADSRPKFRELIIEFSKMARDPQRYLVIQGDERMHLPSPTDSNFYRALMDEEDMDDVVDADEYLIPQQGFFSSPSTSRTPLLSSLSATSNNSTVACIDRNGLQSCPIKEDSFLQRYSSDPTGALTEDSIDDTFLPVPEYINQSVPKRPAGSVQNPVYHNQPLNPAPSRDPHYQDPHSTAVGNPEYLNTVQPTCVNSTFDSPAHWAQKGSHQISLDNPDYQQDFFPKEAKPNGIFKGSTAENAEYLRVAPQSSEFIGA
Protocol: (§1) In vitro kinase activity (inhibitor binding constants (Kd) and biochemical inhibition (IC50’s)) were assessed by Eurofins DiscoverX (Kd determinations) and Eurofins Cerep (biochemical IC50 determinations).

[2] = target: T2, EGFR del E746_A750 (Homo sapiens, UniProt P00533, DEL746-750); test: KINOMEScan KdELECT Kd determination; type: binding
T2 construct: purchased Eurofins DiscoverX (contract assay)
T2 sequence (P00533 with tags, fused parts or gaps DEL746-750): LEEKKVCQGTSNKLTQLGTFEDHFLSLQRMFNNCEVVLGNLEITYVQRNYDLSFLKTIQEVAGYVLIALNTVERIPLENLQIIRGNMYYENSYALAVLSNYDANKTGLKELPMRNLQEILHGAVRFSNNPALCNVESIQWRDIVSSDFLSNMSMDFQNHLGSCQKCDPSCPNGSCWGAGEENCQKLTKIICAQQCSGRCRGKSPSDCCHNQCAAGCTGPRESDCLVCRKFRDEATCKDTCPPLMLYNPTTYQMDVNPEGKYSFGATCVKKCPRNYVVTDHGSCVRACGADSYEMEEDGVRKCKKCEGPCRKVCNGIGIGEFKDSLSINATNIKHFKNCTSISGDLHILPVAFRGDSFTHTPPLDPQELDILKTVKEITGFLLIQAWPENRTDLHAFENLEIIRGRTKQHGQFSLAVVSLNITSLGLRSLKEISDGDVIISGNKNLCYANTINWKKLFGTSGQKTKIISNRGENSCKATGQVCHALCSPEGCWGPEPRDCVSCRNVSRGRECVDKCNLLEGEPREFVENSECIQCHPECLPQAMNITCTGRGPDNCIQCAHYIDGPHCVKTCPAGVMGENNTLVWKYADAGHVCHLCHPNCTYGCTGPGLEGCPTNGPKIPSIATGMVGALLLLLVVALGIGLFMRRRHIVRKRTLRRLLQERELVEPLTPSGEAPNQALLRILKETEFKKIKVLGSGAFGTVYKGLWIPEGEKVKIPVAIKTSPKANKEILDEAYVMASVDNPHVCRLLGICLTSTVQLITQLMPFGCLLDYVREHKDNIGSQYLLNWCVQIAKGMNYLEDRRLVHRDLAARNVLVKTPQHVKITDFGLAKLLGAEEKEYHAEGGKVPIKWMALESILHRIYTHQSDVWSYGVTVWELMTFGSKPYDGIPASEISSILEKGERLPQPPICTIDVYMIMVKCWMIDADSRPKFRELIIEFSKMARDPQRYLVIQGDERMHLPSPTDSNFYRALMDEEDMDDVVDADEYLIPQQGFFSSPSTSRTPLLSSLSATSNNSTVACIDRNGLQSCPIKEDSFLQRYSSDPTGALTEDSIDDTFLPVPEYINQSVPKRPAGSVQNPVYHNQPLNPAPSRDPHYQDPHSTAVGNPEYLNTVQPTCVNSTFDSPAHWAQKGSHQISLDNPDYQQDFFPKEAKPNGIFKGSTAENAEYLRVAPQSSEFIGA
Protocol: as §1

[3] = target: T1, EGFRwt; test: KinaseProfiler enzymatic radiometric assay; type: biochemical; conditions: wt, ATP 10 μM; read-out: EGFR IC50
Protocol: as §1

[4] = test system: HCC827 (EGFR mutation = exon19del); test: CellTiter-Glo cell viability assay; type: cell-based, human; conditions: Homo sapiens, HCC827; 72 h, unadjusted for FBS
Protocol: (§2) The NCI-H3255 cell line was obtained from CoBioer. […] NCI-H3255 cells were cultured in BEGM (Lonza) with 10% FBS. […] All cells were cultured in a humidified incubator with 5% CO2 at 37 °C.
(§3) Viability assays using A431, HCC827, NCI-H1975, NCI-H3255, Ba/F3 EGFR-del E746_A750/C797S, Ba/F3 EGFR-L858R/C797S, AU565, SK-BR-3, and ZR-75-30 cells were performed at Crown BioScience.

[5] = test system: NCI-H3255 (EGFR mutation = L858R); test: CellTiter-Glo cell viability assay; type: cell-based, human; conditions: Homo sapiens, NCI-H3255; 72 h, unadjusted for FBS
Protocol: as §2, §3

[6] = Lipophilicity, shake-flask; type: physicochemical; conditions: 1-octanol/PBS; 1-octanol and PBS (pH 7.4); read-out: logD7.4
Protocol: Compound lipophilicity was determined by Pharmaron, Inc. using the shake-flask method with 1-octanol and PBS (pH 7.4). Each compound was assessed in duplicate (n = 2) at 1 μM in a 96-well plate shaken at 25 °C and 2000 rpm for 2 h. Samples were analyzed by liquid chromatography and tandem mass spectrometry (LC-MS/MS).

[7] = Solubility assay; type: physicochemical; conditions: buffer, pH 7.4, aqueous buffer; read-out: Aq. Sol.
Protocol: Solubility was determined by Pharmaron, Inc. and each compound was assessed in duplicate (n = 2) by adding 15 μL of compound stock solution (10 mM in DMSO) into a 96-well plate along with 485 μL of buffer followed by shaking at 25 °C, 1100 rpm for 2 h. Wells were filtered, and samples (5 μL) were taken followed by dilution with an equal volume of DMSO (5 μL) and 490 μL of aqueous solution. Samples were analyzed by LC-MS/MS.

[8] = Metabolic stability in liver microsomes; type: in vitro ADME, human; conditions: for Remaining Percentage: human LM
Protocol: (§4) Microsome stability was assessed in duplicate (n = 2) in the presence and absence of nicotinamide adenine dinucleotide phosphate (NADPH) with liver microsomes (0.5 mg/mL) from human (BD Gentest) and Sprague-Dawley rats (BD Gentest). Compounds were incubated in liver microsomes at 1 μM and samples (30 μL) were taken at 0.5, 15, 30, 45, and 60 min time points for analysis by LC-MS/MS. Hepatocyte stability was assessed in duplicate (n = 2) at a working cell density of 0.5 × 10^6 cells/mL with hepatocytes from human (BiolVT), Sprague-Dawley rat (BiolVT), cynomolgus monkey (RILD) or beagle dog (BiolVT). […] The in vitro half-life and intrinsic clearances were determined as previously described.[76]
(§5) In vitro half-life (in vitro t1/2) was determined from the slope value in [drawing 1] where k was determined by linear regression of the natural logarithm of the remaining percentage of the parent drug vs the incubation time curve.

[9] = Metabolic stability in liver microsomes; type: in vitro ADME, Sprague-Dawley rat; conditions: for Remaining Percentage: rat LM
Protocol: as §4, §5

[10] = Caco-2 permeability; type: in vitro ADME; conditions: human; for recovery at 2 h, 5 μM: Caco-2, Caco-2
Protocol: (§6) A 96-well HTS Transwell plate (Corning) was used for Caco-2 and MDCKII-MDR1 cell seeding. […] Plates were incubated at 37 °C for 2 h, and samples (50 μL) were taken at the beginning and end of the incubation in both the donor and acceptor wells with the assay run in duplicate (n = 2). Samples were analyzed by LC-MS/MS.
(§7) The efflux ratio was determined by using the following equation: [drawing 4] where Papp (B–A) indicates the apparent permeability in the basolateral to apical direction and Papp (A–B) indicates the apparent permeability in the apical to basolateral direction.

[11] = MDCKII-MDR1 permeability; type: in vitro ADME, canine; conditions: dog, MDCK-MDR1, MDCKII-MDR1
Protocol: as §6, §7

[12] = test system: MDR1; test: MDCKII-MDR1 permeability; type: in vitro ADME, canine; conditions: dog, MDCK-MDR1
Protocol: as §6, §7

[13] = target: T3, EGFRL858R (Homo sapiens, UniProt P00533, L858R); test: KINOMEScan KdELECT Kd determination; type: binding; parameters: purchased Eurofins DiscoverX (contract assay); conditions: L858R
T3 sequence (P00533 25-1210 L858R): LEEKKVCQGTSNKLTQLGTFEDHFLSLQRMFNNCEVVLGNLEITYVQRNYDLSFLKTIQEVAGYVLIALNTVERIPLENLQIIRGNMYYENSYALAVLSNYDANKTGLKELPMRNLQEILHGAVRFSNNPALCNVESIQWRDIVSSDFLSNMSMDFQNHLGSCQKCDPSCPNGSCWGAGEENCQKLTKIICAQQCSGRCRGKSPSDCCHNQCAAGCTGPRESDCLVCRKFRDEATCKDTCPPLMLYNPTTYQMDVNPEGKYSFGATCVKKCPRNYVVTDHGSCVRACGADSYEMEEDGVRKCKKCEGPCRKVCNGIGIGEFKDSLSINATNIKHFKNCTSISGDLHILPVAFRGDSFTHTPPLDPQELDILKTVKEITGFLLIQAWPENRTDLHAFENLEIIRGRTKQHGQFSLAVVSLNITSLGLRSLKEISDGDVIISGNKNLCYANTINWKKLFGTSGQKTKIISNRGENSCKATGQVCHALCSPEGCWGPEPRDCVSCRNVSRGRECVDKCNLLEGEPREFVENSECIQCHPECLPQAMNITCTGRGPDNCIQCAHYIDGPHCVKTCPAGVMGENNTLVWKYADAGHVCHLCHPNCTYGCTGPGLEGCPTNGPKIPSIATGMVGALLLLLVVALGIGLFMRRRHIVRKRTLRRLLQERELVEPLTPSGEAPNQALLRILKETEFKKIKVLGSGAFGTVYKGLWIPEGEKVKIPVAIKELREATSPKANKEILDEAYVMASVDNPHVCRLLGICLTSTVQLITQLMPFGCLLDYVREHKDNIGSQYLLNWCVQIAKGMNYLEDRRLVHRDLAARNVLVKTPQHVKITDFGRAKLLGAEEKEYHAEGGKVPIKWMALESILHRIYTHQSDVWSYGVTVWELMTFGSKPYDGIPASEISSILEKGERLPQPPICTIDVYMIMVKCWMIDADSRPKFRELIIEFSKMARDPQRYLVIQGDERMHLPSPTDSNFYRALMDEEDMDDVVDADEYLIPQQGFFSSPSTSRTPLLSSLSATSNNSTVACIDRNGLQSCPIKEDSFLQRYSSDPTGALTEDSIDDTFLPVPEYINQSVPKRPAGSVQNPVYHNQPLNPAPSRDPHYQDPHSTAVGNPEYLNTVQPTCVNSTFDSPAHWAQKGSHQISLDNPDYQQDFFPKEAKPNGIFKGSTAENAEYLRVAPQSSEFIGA
Protocol: as §1

[14] = target: T3, EGFRL858R; test: KinaseProfiler enzymatic radiometric assay; type: biochemical; parameters: purchased Eurofins Cerep (KinaseProfiler, contract assay); conditions: ATP 10 μM, read-out: EGFR IC50
Protocol: as §1

[15] = parameters: method as in ref 56−59; conditions: ref 56−59; cited from earlier work

Kd [1]: 0.8 nM | Kd [2]: 0.4 nM | IC50 [3]: 3 nM | IC50 [4]: 15 nM | IC50 [5]: 37 nM | logD at 2 h, 1 µM [6]: 3.3 | solubility kinetic at 2 h [7]: 18 µM (≈ 8.31 µg/mL) | Remaining Percentage ([8]; +Cofactors, 15 min): 60.04% | Remaining Percentage ([8]; +Cofactors, 30 min): 39.49% | Remaining Percentage ([8]; +Cofactors, 45 min): 24.83% | Remaining Percentage ([8]; +Cofactors, 60 min): 20.34% | Remaining Percentage ([8]; -Cofactors, 60 min): 95.02% | half-life at 1 h, 1 µM ([8]; human, liver microsomes, read-out: LM t1/2): 25.4 min | microsomal CLint at 1 h, 1 µM ([8]; human, liver microsomes, read-out: LMClint): 55 µL/min/mg | half-life at 1 h, 1 µM ([9]; Sprague-Dawley, rat, liver microsomes, read-out: LM t1/2): 22.4 min | microsomal CLint at 1 h, 1 µM ([9]; Sprague-Dawley, rat, liver microsomes, read-out: LMClint): 62 µL/min/mg | Remaining Percentage ([9]; +Cofactors, 15 min): 58.02% | Remaining Percentage ([9]; +Cofactors, 30 min): 32.28% | Remaining Percentage ([9]; +Cofactors, 45 min): 22.82% | Remaining Percentage ([9]; +Cofactors, 60 min): 15.90% | Remaining Percentage ([9]; -Cofactors, 60 min): 97.68% | efflux ratio at 2 h, 5 µM ([10]; Caco-2): 20.2 | efflux ratio at 2 h, 5 μM ([10]; Caco-2): 19.3 | recovery at 2 h, 5 μM ([10]; read-out: Recovery% (AP-BL)): 63.3% | recovery at 2 h, 5 μM ([10]; read-out: Recovery% (BL-AP)): 72.3% | Papp A→B at 2 h, 5 µM ([10]; Caco-2, 5 μM, 2 h): 0.6 ×10⁻⁶ cm/s | Papp A→B at 2 h, 5 μM ([10]; Caco-2, 5 μM, 2 h): 0.63 ×10⁻⁶ cm/s | Papp B→A at 2 h, 5 µM ([10]; Caco-2, 5 μM, 2 h): 12.1 ×10⁻⁶ cm/s | recovery at 2 h, 1 μM ([11]; read-out: Recovery% (AP-BL)): 58.6% | recovery at 2 h, 1 μM ([11]; read-out: Recovery% (BL-AP)): 76.1% | efflux ratio at 2 h, 1 µM [12]: 8.7 | efflux ratio at 2 h, 1 μM [12]: 8.65 | Papp A→B at 2 h, 1 µM ([12]; 1 μM, 2 h): 1.4 ×10⁻⁶ cm/s | Papp A→B at 2 h, 1 μM ([12]; 1 μM, 2 h): 1.35 ×10⁻⁶ cm/s | Papp B→A at 2 h, 1 µM ([12]; 1 μM, 2 h): 11.7 ×10⁻⁶ cm/s | Papp B→A at 2 h, 1 μM ([12]; 1 μM, 2 h): 11.7 ×10⁻⁶ cm/s | Kd [13]: 0.6 nM | IC50 [14]: 2 nM
Compound: COc1cc2ncnc(Nc3ccc(F)c(Cl)c3)c2cc1OCCON1CCN(C)CC1 [Compound 8, N-(3-Chloro-4-fluorophenyl)-7-methoxy-6-(2-((4-methylpiperazin-1-yl)oxy)ethoxy)quinazolin-4-amine]

Compound: Fc1c(Br)cccc1Nc1ncnc2cc3c(cc12)OCCO3 [JCN037]
Kp,uu brain (AUC0-7h) [15]: 1.3

Compound: COc1cc2ncnc(Nc3cccc(Cl)c3F)c2cc1OC(=O)N1CCN(C)C[C@H]1C [AZD3759]
Kp,uu brain (AUC0-7h) [15]: 1.3
